Results as given in ChEMBL document CHEMBL1201862, “PubChem BioAssay data set” (2004).
Calls of active or inactive are those of the source.

Assays:
NADPH oxidase 1 = target: T1, NADPH oxidase 1 (Homo sapiens, UniProt Q9Y5S8); test: Late-stage luminescence-based cell-based dose response assay to identify inhibitors of NADPH oxidase 1 (NOX1): Purchased analogs 2.; format: functional
T1 sequence (Q9Y5S8 whole entry): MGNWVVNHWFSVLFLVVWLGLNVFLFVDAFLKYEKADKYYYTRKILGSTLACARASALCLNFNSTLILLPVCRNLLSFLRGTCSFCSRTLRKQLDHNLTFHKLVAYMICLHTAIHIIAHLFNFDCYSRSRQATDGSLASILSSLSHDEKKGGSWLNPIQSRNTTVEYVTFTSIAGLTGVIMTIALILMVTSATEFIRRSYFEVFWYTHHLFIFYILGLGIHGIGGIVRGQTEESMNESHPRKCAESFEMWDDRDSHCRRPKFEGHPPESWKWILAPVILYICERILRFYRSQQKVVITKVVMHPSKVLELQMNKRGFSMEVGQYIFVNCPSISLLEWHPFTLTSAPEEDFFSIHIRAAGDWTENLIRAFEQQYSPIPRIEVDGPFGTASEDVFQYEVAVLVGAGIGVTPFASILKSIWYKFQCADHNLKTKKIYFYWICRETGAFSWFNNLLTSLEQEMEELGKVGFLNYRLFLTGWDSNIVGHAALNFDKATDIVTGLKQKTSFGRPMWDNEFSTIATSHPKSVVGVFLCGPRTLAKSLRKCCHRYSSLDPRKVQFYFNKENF

[1] = target: T2, Orexin/Hypocretin receptor type 1 (Homo sapiens, UniProt O43613); test: (§1) Fluorescence-based cell-based high throughput dose response assay for antagonists of the orexin 1 receptor (OX1R; HCRTR1). [Related pubchem assays (depositor defined):AID434989, AID435008, AID463079, AID485270, AID492963, AID492964, AID492965, AID493232, AID504717, AID504718]; format: functional
T2 sequence (O43613 whole entry): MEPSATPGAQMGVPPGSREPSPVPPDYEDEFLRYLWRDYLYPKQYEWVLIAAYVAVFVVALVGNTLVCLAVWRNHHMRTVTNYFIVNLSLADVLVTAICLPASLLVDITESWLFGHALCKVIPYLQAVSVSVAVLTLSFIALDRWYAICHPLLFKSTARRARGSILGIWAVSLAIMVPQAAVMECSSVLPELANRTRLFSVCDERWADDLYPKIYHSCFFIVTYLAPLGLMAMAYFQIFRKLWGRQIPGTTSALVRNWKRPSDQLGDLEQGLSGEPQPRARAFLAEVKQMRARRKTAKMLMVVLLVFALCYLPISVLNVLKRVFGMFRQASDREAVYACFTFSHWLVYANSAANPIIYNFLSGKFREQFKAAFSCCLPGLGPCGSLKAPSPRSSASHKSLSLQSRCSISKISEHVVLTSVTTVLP

CHO-K1 = test: (§2) Counterscreen for antagonists of the orexin 1 receptor (OX1R; HCRTR1): Homogeneous time resolved fluorescence (HTRF)-based cell-based dose response assay to identify antagonists of the parental CHO-K1 cell line. [Related pubchem assays (depositor defined):AID434989, AID435008, AID463079, AID485270, AID492963, AID492964, AID492965, AID493232, AID504699, AID504701]; format: functional; conditions: Cricetulus griseus
Orexin receptor type 2 [2] = target: T3, Orexin receptor type 2 (Homo sapiens, UniProt O43614); test: Counterscreen assay for antagonists of the orexin 1 receptor (OX1R; HCRTR1): Homogeneous Time Resolved Fluorescence (HTRF)-based cell-based dose response assay for antagonists of the orexin 2 receptor (OX2R; HCRTR2), run by assay provider.; format: functional
T3 sequence (O43614 whole entry): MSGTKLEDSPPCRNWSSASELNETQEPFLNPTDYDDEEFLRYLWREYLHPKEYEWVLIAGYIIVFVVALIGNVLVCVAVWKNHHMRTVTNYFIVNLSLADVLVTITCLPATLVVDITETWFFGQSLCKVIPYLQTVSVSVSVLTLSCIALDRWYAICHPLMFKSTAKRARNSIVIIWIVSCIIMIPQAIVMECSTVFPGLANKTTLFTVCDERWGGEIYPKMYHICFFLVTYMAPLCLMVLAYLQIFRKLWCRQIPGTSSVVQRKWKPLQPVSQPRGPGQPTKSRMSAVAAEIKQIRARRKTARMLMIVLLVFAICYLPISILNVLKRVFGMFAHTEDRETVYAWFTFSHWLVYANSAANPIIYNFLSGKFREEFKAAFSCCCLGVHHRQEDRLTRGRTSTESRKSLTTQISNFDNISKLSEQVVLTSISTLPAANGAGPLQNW

[3] = target: Voltage-gated inwardly rectifying potassium channel KCNH2 (Homo sapiens, UniProt Q12809); test: concentration-dependent hERG rescue from blockers – cell-based, thallium flux, dose response (AID 2121); format: ADME
[4] = as §2, with “Fluorescence-based” for “Homogeneous time resolved fluorescence (HTRF)-based”, “cell-based high throughput” for “cell-based”, “CHO” for “CHO-K1”; format: functional
Orexin receptor type 2 [5] = target: T3, Orexin receptor type 2; test: Counterscreen assay for antagonists of the orexin 1 receptor (OX1R; HCRTR1): Fluorescence-based cell-based dose response assay for antagonists of the orexin 2 receptor (OX2R; HCRTR2), run by assay provider.; format: functional
[6] = target: T2, Orexin/Hypocretin receptor type 1; test: as §1, with “Homogeneous Time Resolved Fluorescence (HTRF)-based” for “Fluorescence-based”; format: functional
Ephrin type-A receptor 4 = Ephrin type-A receptor 4 (Mus musculus, UniProt Q03137); test: EphA4 ligand-binding antagonists – biochemical, colorimetric, mouse EphA4, primary screen (AID 689); format: functional
[7] = Luminescent dose response cell-based high throughput screening assay for inhibitors of the Janus kinase 2 mutant JAK2V617F. [Related pubchem assays: 1446 (Primary screen.), 1521 (Confirmation assay.), 1486 (Counter screen.)]; format: functional
[8] = general cell-killing toxicity readout – plate reader, dry powder samples, cytotoxicity control for PAX8 inhibitor project, dose response (AID 743021); format: functional, cell-based
BJ [9] = test: growth inhibition of engineered Ras-driven BJ cells – cell-based, alamar blue fluorescence, cherrypicked samples, dose response (AID 2631); format: functional; conditions: Homo sapiens;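 further: confirmatory dose-response assay in RAS-dependent BJ fibroblasts engineered with TERT, LT and ST, with cytotoxicity read by fluorescence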
Paired box protein Pax-8 = Paired box protein Pax-8 (Homo sapiens, UniProt Q06710); test: PAX8 transcriptional activity inhibition in RMG-I – RMG-I cells, luciferase, cherry-pick, dose response (AID 687027); format: functional, cell-based;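 further: luciferase reporter driven by Pax8 target thyroperoxidase promoter measured by SteadyGlo luminescence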
[10] = DRD fibroblast viability loss – cell-based, non-viral oncogenic, luminescence, dose response (AID 1934); format: functional; conditions: Homo sapiens
Jurkat = test: blockers of NF-kB activation in T cells – Jurkat, luciferase reporter, luminescence, B- and T-cell, dose response (AID 489004); format: functional, cell-based; conditions: Homo sapiens;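 further: NF-kB luciferase reporter Jurkat cells stimulated with PMA plus ionomycin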
BJ [11] = test: BJ-TERT-LT-ST fibroblast viability loss – cell-based, RAS-independent, luminescence, dose response (AID 1935); format: functional; conditions: Homo sapiens;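 further: BJ fibroblasts immortalized with TERT plus LT and ST oncogenes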
BJ [12] = test: cells; format: functional, cell-based; conditions: Homo sapiens
[13] = HEK-293T viability loss, compound-treated – cell-based, uHTS hits, cytotoxicity control for B/T-cell NF-kB inhibitor project, dose response (AID 489019); format: functional;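 further: IC50 reflects cytotoxicity as loss of cell viability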
BJ [14] = test: BJ-TERT fibroblast viability loss – cell-based, RAS-independent, luminescence, dose response (AID 1933); format: functional; conditions: Homo sapiens
[15] = M. tuberculosis growth inhibition, HTS (AID 449762); format: functional
[16] = microbe, parasite or virus in culture; format: functional; conditions: Mycobacterium tuberculosis
[17] = viability loss in Vero cells – cytotoxicity control for Vif-APOBEC3G degradation inhibitor project, dose response (AID 1117358); format: functional; conditions: Vero
[18] = target: T4, Mannose-6-phosphate isomerase (Homo sapiens, UniProt P34949); test: MPI inhibition at elevated mannose 6-phosphate – biochemical, fluorescence intensity, high mannose 6-phosphate, primary screen (AID 1220)
T4 sequence (P34949 whole entry): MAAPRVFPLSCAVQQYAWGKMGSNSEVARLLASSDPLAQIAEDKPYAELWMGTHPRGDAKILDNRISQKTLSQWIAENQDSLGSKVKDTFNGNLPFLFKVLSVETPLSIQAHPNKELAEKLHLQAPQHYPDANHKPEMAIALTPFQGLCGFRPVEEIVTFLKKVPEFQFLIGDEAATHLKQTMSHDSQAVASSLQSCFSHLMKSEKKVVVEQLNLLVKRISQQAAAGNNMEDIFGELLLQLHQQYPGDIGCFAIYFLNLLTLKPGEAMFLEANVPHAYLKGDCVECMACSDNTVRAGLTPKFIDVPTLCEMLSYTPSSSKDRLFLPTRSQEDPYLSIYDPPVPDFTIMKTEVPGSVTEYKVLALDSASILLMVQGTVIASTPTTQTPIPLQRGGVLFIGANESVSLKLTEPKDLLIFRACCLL

Large T antigen = Large T antigen (Simian virus 40, UniProt P03070); format: functional, Betapolyomavirus macacae;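 further: Confirmatory-stage PubChem screen for compounds that inhibit SV40 T antigen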
[19] = HIV-1 Vif–A3G interaction blockers – biochemical, TR-FRET, GST-Vif 1-94, biotin-A3G peptide, dose response retest, primary screen (AID 1117319); format: functional;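 further: TR-FRET signal of purified GST-Vif binding a biotinylated A3G peptide; inhibitors lower the FRET signal by blocking Vif and A3G binding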
[20] = target: T4, Mannose-6-phosphate isomerase; test: MPI enzyme activity inhibition – biochemical, fluorescence intensity, coupled assay, primary screen (AID 1209)

Sequence of Large T antigen (P03070 whole entry): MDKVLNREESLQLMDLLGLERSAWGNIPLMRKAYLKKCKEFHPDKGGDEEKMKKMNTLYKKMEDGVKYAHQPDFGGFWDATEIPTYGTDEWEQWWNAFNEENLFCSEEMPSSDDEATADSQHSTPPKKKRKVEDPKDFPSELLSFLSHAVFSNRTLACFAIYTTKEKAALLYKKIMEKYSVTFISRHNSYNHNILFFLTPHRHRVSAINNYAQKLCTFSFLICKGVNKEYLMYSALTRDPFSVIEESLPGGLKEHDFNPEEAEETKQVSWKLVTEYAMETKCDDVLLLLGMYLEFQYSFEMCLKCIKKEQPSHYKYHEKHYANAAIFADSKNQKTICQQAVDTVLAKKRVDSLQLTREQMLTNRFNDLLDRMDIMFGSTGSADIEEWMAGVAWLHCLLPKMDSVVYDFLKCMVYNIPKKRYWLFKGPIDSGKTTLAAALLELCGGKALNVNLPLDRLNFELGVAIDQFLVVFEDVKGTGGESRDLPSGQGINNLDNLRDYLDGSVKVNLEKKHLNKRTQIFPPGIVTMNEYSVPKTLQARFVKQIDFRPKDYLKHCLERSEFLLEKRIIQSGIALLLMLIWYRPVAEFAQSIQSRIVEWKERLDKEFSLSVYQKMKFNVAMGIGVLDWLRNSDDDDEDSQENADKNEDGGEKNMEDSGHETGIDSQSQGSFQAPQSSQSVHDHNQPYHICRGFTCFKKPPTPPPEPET
Sequence of Paired box protein Pax-8 (Q06710 whole entry): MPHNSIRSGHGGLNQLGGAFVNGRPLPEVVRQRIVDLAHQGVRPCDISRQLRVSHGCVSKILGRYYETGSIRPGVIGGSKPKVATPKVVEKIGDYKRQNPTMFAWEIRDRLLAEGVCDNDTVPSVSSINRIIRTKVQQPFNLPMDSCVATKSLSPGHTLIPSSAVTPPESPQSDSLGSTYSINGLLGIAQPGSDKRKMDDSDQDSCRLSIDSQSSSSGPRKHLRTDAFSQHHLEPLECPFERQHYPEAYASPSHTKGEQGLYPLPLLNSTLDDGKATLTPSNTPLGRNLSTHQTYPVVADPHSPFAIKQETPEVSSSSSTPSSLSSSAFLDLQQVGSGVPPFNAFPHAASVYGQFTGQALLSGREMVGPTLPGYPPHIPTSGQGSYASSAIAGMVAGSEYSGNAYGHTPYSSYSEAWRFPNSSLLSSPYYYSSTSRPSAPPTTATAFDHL
Sequence of Voltage-gated inwardly rectifying potassium channel KCNH2 (Q12809 whole entry): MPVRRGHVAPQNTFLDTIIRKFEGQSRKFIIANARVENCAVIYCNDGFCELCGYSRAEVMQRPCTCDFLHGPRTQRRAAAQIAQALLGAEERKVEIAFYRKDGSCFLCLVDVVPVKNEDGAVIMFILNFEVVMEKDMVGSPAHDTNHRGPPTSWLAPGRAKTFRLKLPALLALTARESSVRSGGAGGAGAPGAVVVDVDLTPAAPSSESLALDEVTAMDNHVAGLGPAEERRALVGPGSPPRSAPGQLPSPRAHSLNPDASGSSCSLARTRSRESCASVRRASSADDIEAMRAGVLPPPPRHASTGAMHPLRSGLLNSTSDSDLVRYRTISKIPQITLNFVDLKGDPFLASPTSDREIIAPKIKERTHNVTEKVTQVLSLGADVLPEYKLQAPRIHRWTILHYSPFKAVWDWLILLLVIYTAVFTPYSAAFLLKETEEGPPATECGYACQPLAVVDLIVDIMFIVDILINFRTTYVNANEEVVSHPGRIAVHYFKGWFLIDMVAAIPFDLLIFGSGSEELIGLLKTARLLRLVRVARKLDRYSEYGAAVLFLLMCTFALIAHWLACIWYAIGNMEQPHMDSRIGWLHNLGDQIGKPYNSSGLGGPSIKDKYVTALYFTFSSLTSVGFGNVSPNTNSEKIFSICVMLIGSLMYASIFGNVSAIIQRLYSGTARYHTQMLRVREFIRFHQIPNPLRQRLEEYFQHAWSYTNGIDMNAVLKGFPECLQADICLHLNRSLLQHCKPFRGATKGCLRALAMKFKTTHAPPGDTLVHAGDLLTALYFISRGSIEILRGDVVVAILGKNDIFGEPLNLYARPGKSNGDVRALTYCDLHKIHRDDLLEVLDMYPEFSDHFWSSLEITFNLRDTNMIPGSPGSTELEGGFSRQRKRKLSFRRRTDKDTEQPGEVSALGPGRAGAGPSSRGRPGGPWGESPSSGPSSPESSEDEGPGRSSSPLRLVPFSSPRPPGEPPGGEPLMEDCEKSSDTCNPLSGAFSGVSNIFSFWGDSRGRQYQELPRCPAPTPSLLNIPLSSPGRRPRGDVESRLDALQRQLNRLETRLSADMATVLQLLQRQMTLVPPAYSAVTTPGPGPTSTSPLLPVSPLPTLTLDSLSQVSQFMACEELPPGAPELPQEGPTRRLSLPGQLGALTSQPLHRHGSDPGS
Sequence of Ephrin type-A receptor 4 (Q03137 whole entry): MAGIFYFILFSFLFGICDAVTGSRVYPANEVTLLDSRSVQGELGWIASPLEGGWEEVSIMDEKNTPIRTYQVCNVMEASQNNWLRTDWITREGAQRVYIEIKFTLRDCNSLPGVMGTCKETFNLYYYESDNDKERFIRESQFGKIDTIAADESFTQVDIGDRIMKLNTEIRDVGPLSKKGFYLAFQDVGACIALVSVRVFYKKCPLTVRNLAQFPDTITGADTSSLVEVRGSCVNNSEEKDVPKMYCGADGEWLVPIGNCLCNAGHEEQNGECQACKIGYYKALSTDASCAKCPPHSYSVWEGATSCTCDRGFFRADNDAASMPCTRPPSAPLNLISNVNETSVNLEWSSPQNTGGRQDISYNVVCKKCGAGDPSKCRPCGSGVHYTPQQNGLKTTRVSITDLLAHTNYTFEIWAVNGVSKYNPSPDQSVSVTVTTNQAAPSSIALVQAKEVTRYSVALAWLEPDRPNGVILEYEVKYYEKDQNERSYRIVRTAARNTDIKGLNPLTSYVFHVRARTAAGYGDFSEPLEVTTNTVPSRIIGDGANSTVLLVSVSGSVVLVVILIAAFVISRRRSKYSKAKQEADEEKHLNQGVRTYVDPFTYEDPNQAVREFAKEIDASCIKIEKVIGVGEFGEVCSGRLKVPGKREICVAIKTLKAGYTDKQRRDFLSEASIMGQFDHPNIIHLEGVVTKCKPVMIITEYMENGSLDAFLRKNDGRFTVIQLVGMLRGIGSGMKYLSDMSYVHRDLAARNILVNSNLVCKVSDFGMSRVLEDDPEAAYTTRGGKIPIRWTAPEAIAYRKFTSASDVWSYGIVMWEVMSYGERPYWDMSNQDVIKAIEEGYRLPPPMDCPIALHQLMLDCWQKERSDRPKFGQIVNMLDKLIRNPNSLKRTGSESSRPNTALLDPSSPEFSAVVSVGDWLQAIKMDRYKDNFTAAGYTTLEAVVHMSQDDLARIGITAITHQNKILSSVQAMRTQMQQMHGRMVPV

CC=C(NNc1c(Cl)c(Cl)nc(C(=O)O)c1Cl)c1ccccc1
IC50 (NADPH oxidase 1): > 17 µM (not active)

O=C(NC(=S)Nc1nc(-c2ccccc2)cs1)c1ccco1
IC50 [1]: > 49.7 µM (inactive)
IC50 (CHO-K1): > 66.2 µM (inactive)
IC50 (Orexin receptor type 2 [2]): > 50 µM (inactive)
EC50 [3]: 0.15 µM (active)
IC50 [4]: > 49.7 µM (inactive)
IC50 (Orexin receptor type 2 [5]): > 88.8 µM (inactive)
IC50 [6]: 7.37 µM (active)

Cc1ccc(C)c(OCc2nnc(N)s2)c1
IC50 (Ephrin type-A receptor 4): > 100 µM (not active)

O=C(CCl)/N=c1\sccn1Cc1ccccc1Cl
IC50 [7]: 0.442 µM (active)
AC50 [8]: 2.74 µM (active)
EC50 (BJ [9]): 0.343 µM (active)
AC50 (Paired box protein Pax-8): 1.64 µM (active)
EC50 [10]: 0.691 µM (active)
IC50 (Jurkat): 0.31 µM (active)
EC50 (BJ [11]): 12.1 µM (inconclusive)
EC50 (BJ [12]): 1.33 µM (inconclusive)
IC50 [13]: > 80 µM (inactive)
EC50 (BJ [14]): 0.403 µM (inconclusive)

O=C(N/N=C/c1cn(-c2ccccc2)nc1-c1cccs1)c1ccc(Cl)cc1
IC50 [15]: > 100 µM (active)
CC50 [16]: 23.1 µM (active)

Oc1ccc(/C=N/NP(=S)(c2ccccc2)c2ccccc2)cc1O
CC50 [17]: > 40 µM (active)
IC50 [18]: > 50 µM (not active)
IC50 (Large T antigen): 54.9 µM (active)
IC50 [19]: > 100 µM (active)
IC50 [20]: > 50 µM (not active)
